Measured values from patent US11021486B2, “Coumarin-like cyclic compound as MEK inhibitor and use thereof” (CSTONE PHARMACEUTICALS, priority 2017, dated 2021).
Read-outs that look alike come from different tables or passages of the source.

Assays:
activated MEK1 = target: T1, activated MEK1 (Homo sapiens, UniProt Q02750); assay: MEK Lance Ultra experiment; type: biochemical; details: 0.07 nM activated MEK1, 2 nM non-activated ERK, 50 μM ATP; read-out: MEK potency IC50
T1 construct: purchased Millipore 14-429
T1 sequence (Q02750 whole entry): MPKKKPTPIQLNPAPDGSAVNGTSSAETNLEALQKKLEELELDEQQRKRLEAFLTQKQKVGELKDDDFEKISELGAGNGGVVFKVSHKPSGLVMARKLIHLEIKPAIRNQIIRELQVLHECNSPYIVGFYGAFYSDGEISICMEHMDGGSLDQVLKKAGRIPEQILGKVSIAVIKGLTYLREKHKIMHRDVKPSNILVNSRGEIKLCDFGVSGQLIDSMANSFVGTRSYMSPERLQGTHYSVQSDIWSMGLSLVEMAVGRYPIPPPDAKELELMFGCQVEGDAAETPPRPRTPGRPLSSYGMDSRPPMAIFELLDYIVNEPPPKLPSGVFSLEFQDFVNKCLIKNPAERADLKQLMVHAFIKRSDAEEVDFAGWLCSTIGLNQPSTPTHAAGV
Experimental: Biological Test Method 1: MEK Lance Ultra Experiment Compounds were serially diluted three-fold to 10 concentrations, two duplicates were set. Final test concentrations of the compounds ranged from 10 μM to 0.51 nM. 0.07 nM activated MEK1 (Millipore #14-429) and 2 nM non-activated ERK (Millipore #14-515) were mixed with the compounds or DMSO, the mixture was incubated at 23° C. for 30 minutes. Then 50 nM ULight labeled MBP (PerkinElmer #TRF0109-M) and 50 μM ATP (Invitrogen #PV3227) were added to initiate the reaction, and the mixture was incubated at 23° C. for 90 minutes. After the reaction was stopped by adding EDTA at a final concentration of 15 mM, 2 nM Eu-labeled anti-phosphorylated antibody (PerkinElmer #TRF0201-M) was added and incubated for 1 hour. The fluorescence signal data (excitation band: 320 nm; emission band: 665 nM/615 nM) was determined by an Envision microplate reader (PerkinElmer). XLfit5 software was used for data analysis and mapping.

HT29 cells = assay: Cell viability experiment (Cell Titer-Glo), HT29; type: cell-based, human
Experimental: (§1) Biological Test Method 2: Cell Viability Experiment
(§2) HT29 and A375 cells were plated in a 96-well cell culture plate at a density of 40,000 cells/well and 20,000 cells/well respectively, and the cells were cultured overnight. The compounds were serially diluted in a gradient of 1:3, the dilutions were added to the cell culture medium, and incubated with the cells in a 37° C. incubator for 3 days. The 96-well cell culture plate was taken from the incubator and equilibrated at room temperature for 30 minutes, then Cell Titer-Glo reagent (Promega Cat #G7573) was added at a ratio of 1:2, and the mixture was mixed thoroughly on a shaker for 2 minutes to promote cell lysis. The cell culture plate was incubated at room temperature for 10 minutes and then read on an Envision microplate reader (PerkinElmer). XLfit5 software was used for data analysis and mapping.

A375 cells = assay: Cell viability experiment (Cell Titer-Glo), A375; type: cell-based
Experimental: as §1, §2

[1] = Homo sapiens, HT-29, 72 h, HT29 cells, 3 days incubation, read-out: HT29 IC50
[2] = Homo sapiens, A-375, 72 h, A375 cells, 3 days incubation, read-out: A375 IC50
[3] = Homo sapiens, HT-29, 72 h, read-out: HT29 IC50, HT29 cells, 3 days incubation
[4] = Homo sapiens, A-375, 72 h, read-out: A375 IC50, A375 cells, 3 days incubation
[5] = read-out: HT29 IC50, HT29 cells, 3 days incubation
[6] = read-out: A375 IC50, A375 cells, 3 days incubation
[7] = HT29 cells, 3 days incubation, read-out: HT29 IC50
[8] = A375 cells, 3 days incubation, read-out: A375 IC50

| IC50 (activated MEK1) | IC50 (HT29 cells; [1]) | IC50 (A375 cells; [2]) | Compound | also measured |
| --- | --- | --- | --- | --- |
| 29.5 nM | 105 nM | 17.2 nM | CNCc1cccc(-c2c(C)n(C3CC3)c(=O)c3c(Nc4ccc(I)cc4F)c(C)c(=O)oc23)c1 [WX097] | – |
| 14.4 nM | 14.9 nM | 3.56 nM | Cc1ccccc1-c1c(C)n(C2CC2)c(=O)c2c(Nc3ccc(I)cc3F)c(C)c(=O)oc12 [WX111] | – |
| 68 nM | 745 nM | 631 nM | COCCCn1c(C)c(-c2cccc(NC(C)=O)c2)c2oc(=O)c(C)c(Nc3ccc(I)cc3F)c2c1=O [WX062] | – |
| 146 nM | 10.5 nM | 8.62 nM | Cc1c(Nc2ccc(I)cc2F)c2c(=O)n(C3CC3)c(C)c(-c3cccc(C[S+](C)[O-])c3)c2oc1=O (single isomer, unassigned) [WX083] | – |
| 36.2 nM | 7.38 nM | 4.31 nM | Cc1c(Nc2ccc(I)cc2F)c2c(=O)n(C3CC3)c(C)c(-c3cccc(NC(=O)C4COC4)c3)c2oc1=O [WX065] | – |
| 86.4 nM | 115 nM | 66.9 nM | COCCn1c(C)cc2oc(=O)c(C)c(Nc3ccc(I)cc3F)c2c1=O [WX060] | – |
| 111 nM | 98.8 nM | 32.9 nM | Cc1c(Nc2ccc(I)cc2F)c2c(=O)n(C3CC3)c(C)cc2oc1=O [WX035] | – |
| 152 nM | 23.7 nM | 9.42 nM | COCCNc1cccc(-c2c(C)n(C3CC3)c(=O)c3c(Nc4ccc(I)cc4F)c(C)c(=O)oc23)c1 [WX087] | – |
| 48.6 nM | 1.77 nM | 0.79 nM | Cc1c(Nc2ccc(I)cc2F)c2c(=O)n(C3CC3)c(C)c(-c3cccc(NS(=O)(=O)C(C)(C)C)c3)c2oc1=O [WX095] | – |
| 41.6 nM | 40.3 nM | 6.63 nM | CC(=O)NCc1cccc(-c2c(C)n(C3CC3)c(=O)c3c(Nc4ccc(I)cc4F)c(C)c(=O)oc23)c1 [WX069] | – |
| 54.1 nM | 2820 nM | 1550 nM | CC(=O)Nc1cccc(-c2c(C)n(CCN(C)C(C)=O)c(=O)c3c(Nc4ccc(I)cc4F)c(C)c(=O)oc23)c1 [WX056] | – |
| 45.2 nM | 18.9 nM | 5.47 nM | COC(=O)Nc1cccc(-c2c(C)n(C3CC3)c(=O)c3c(Nc4ccc(I)cc4F)c(C)c(=O)oc23)c1 [WX094] | – |
| 581 nM | 64.1 nM | 69.7 nM | CC(=O)Nc1cccc(-c2c(C)n(C)c(=O)c3c(Nc4ccc(I)cc4F)c(C)c(=O)oc23)c1 [WX040] | – |
| 61.1 nM | 1.32 nM | 0.47 nM | Cc1c(Nc2ccc(I)cc2F)c2c(=O)n(C3CC3)c(C)c(-c3cccc(NS(=O)(=O)C4CC4)c3)c2oc1=O [WX089] | – |
| 128 nM | 35.6 nM | 10.1 nM | Cc1c(Nc2ccc(I)cc2F)c2c(=O)n(C3CC3)c(C)c(-c3cccc(N[S+]([O-])C(C)(C)C)c3)c2oc1=O (stereo not drawn) [WX091] | – |
| 118 nM | 9.34 nM | 4.65 nM | Cc1c(Nc2ccc(I)cc2F)c2c(=O)n(C3CC3)c(C)c(-c3cccc(NC(=O)N4CCOCC4)c3)c2oc1=O [WX085] | – |
| 81.5 nM | 334 nM | 484 nM | CNCCn1c(C)c(-c2cccc(NC(C)=O)c2)c2oc(=O)c(C)c(Nc3ccc(I)cc3F)c2c1=O [WX054] | – |
| 40.3 nM | 15.7 nM | 5.09 nM | CC(=O)Nc1cncc(-c2c(C)n(C3CC3)c(=O)c3c(Nc4ccc(I)cc4F)c(C)c(=O)oc23)n1 [WX115] | – |
| 114 nM | 6.84 nM | 2.11 nM | Cc1c(Nc2ccc(I)cc2F)c2c(=O)n(C3CC3)c(C)c(-c3cccc(CS(=O)(=O)CCO)c3)c2oc1=O [WX100] | – |

| IC50 (activated MEK1) | IC50 (HT29 cells; [1]) | IC50 (A375 cells; [2]) | Compound | also measured |
| --- | --- | --- | --- | --- |
| 44.3 nM | 69 nM | 33.6 nM | CC(=O)Nc1ccc(C)c(-c2c(C)n(C3CC3)c(=O)c3c(Nc4ccc(I)cc4F)c(C)c(=O)oc23)c1 [WX036] | – |
| 78 nM | 72.5 nM | 24.1 nM | COCCCn1c(C)cc2oc(=O)c(C)c(Nc3ccc(I)cc3F)c2c1=O [WX057] | – |
| 83 nM | 102 nM | 91.1 nM | CC(=O)Nc1cccc(-c2c(C)n(CC(O)CO)c(=O)c3c(Nc4ccc(I)cc4F)c(C)c(=O)oc23)c1 (stereo not drawn) [WX058] | – |
| 18.2 nM | – | – | Cc1[nH]c(=O)c2c(Nc3ccc(I)cc3F)c(C)c(=O)oc2c1-c1cccc(NS(C)(=O)=O)c1C (single isomer, unassigned) [WX119] | IC50 (HT29 cells; [7]): 19.3 nM; IC50 (A375 cells; [8]): 5.85 nM |
| 52 nM | 4.27 nM | 1.61 nM | CC(=O)Nc1cccc(-c2c(C)n(C3CC3)c(=O)c3c(Nc4ccc(I)cc4F)c(C)c(=O)oc23)n1 [WX039] | – |
| 45.4 nM | 4.59 nM | 2.13 nM | Cc1c(Nc2ccc(I)cc2F)c2c(=O)n(C3CC3)c(C)c(-c3cccc(CNS(C)(=O)=O)c3)c2oc1=O [WX088] | – |
| 199 nM | 75.3 nM | 25.1 nM | Cc1c(Nc2ccc(I)cc2F)c2c(=O)n(C3CC3)c(C)c(-c3cccc(N(S(C)(=O)=O)S(C)(=O)=O)c3)c2oc1=O [WX067] | – |
| 176 nM | – | – | Cc1c(Nc2ccc(I)cc2F)c2c(=O)n(C3CC3)c(C)c(-c3cccc(C[S+](C)[O-])c3)c2oc1=O (single isomer, unassigned) [WX084] | IC50 (HT29 cells; [7]): 17.4 nM; IC50 (A375 cells; [8]): 6.18 nM |
| 93.6 nM | 207 nM | 94.5 nM | CCc1c(Nc2ccc(I)cc2F)c2c(=O)n(C3CC3)c(C)c(-c3cccc(CS(C)(=O)=O)c3C)c2oc1=O [WX110] | – |
| 92.8 nM | 9.19 nM | 3.27 nM | Cc1c(Nc2ccc(I)cc2F)c2c(=O)n(CC(O)CO)c(C)cc2oc1=O (stereo not drawn) [WX053] | – |
| 581 nM | 101 nM | 52.6 nM | CC(=O)Nc1ccc(F)c(-c2c(C)n(C3CC3)c(=O)c3c(Nc4ccc(I)cc4F)c(C)c(=O)oc23)c1 [WX048] | – |
| 52.9 nM | 20.3 nM | 6.04 nM | Cc1c(Nc2ccc(I)cc2F)c2c(=O)n(C3CC3)c(C)c(-c3cccc(C(N)=O)c3)c2oc1=O [WX112] | – |
| 35 nM | 9.77 nM | 3.66 nM | Cc1c(Nc2ccc(I)cc2F)c2c(=O)n(C3CC3)c(C)c(-c3cccc(C[S+](C)[O-])c3)c2oc1=O (stereo not drawn) [WX068] | – |
| 32.4 nM | 923 nM | 1650 nM | CC(=O)Nc1cccc(-c2c(C)n(C3CCOCC3)c(=O)c3c(Nc4ccc(I)cc4F)c(C)c(=O)oc23)c1 [WX059] | – |
| 28.5 nM | 90.3 nM | 11.9 nM | Cc1c(Nc2ccc(I)cc2F)c2c(=O)n(C3CC3)c(C)c(-c3cccc(CN(C)C)c3)c2oc1=O [WX098] | – |
| 32.7 nM | – | – | Cc1[nH]c(=O)c2c(Nc3ccc(I)cc3F)c(C)c(=O)oc2c1-c1cccc(NS(C)(=O)=O)c1C (single isomer, unassigned) [WX118] | IC50 (HT29 cells; [7]): 1.76 nM; IC50 (A375 cells; [8]): 0.41 nM |
| 282 nM | 16.2 nM | 8.19 nM | Cc1c(Nc2ccc(I)cc2F)c2c(=O)n(C3CC3)c(C)c(-c3ccnc(NS(C)(=O)=O)c3)c2oc1=O [WX105] | – |
| 12.3 nM | 2.05 nM | 0.37 nM | CC(=O)Nc1cccc(Cc2c(C)n(C3CC3)c(=O)c3c(Nc4ccc(I)cc4F)c(C)c(=O)oc23)c1 [WX102] | – |
| 178 nM | 8.96 nM | 7.54 nM | Cc1c(Nc2ccc(I)cc2F)c2c(=O)n(C3CC3)c(C)c(-c3cccc(CNS(N)(=O)=O)c3)c2oc1=O [WX092] | – |

| Compound | IC50 (activated MEK1) | IC50 (HT29 cells; [1]) | IC50 (A375 cells; [2]) | also measured |
| --- | --- | --- | --- | --- |
| Cc1c(CS(=O)(=O)C2CC2)cccc1-c1c(C)n(C2CC2)c(=O)c2c(Nc3ccc(I)cc3F)c(C)c(=O)oc12 [WX108] | 29.6 nM | – | – | IC50 (HT29 cells; [3]): 13.1 nM; IC50 (A375 cells; [4]): 2.3 nM |
| CC(=O)Nc1cccc(-c2c(C)n(C3CC3)c(=O)c3c(Nc4ccc(I)cc4F)c(C)c(=O)oc23)c1C [WX096] | 8.73 nM | – | – | IC50 (HT29 cells; [3]): 10.3 nM; IC50 (A375 cells; [4]): 2.47 nM |
| Cc1c(Nc2ccc(I)cc2F)c2c(=O)n(C3CC3)c(C)c(-c3cccc(NS(C)(=O)=O)c3Cl)c2oc1=O (single isomer, unassigned) [WX116] | 34.5 nM | – | – | IC50 (HT29 cells; [5]): 0.82 nM; IC50 (A375 cells; [6]): 0.39 nM |
| Cc1c(Nc2ccc(I)cc2F)c2c(=O)n(C3CC3)c(C)c(-c3cccc(NS(C)(=O)=O)c3Cl)c2oc1=O (single isomer, unassigned) [WX117] | 424 nM | – | – | IC50 (HT29 cells; [5]): 18.7 nM; IC50 (A375 cells; [6]): 7.18 nM |
| Cc1c(CS(C)(=O)=O)cccc1-c1c(C)n(C2CC2)c(=O)c2c(Nc3ccc(I)cc3F)c(C)c(=O)oc12 [WX106] | 29.9 nM | – | – | IC50 (HT29 cells; [3]): 5.89 nM; IC50 (A375 cells; [4]): 2.32 nM |
